According to patent US9120805B2, “Substituted pyrrolo[1,2-A]pyrazin-1-ones and pyrazolo[1,5-A]pyrazin-4-ones as inhibitors of tankyrase and poly(ADP-ribose)polymerase activity” (Merck Patent GmbH, priority 2012, dated 2015):

Molecular target: T1, His-tagged Parp-1 (Homo sapiens, UniProt P09874)
T1 construct: purchased Enzo Life Sciences GmbH
Assay: PARP-1 autoparsylation assay (HTRF)
Format: biochemical
Conditions: PARP-1 autoparsylation HTRF assay
Excerpt: Description of the PARP1 Assay
Biochemical Activity Testing of PARP-1: Autoparsylation Assay
The autoparsylation assay is run in two steps: the enzymatic reaction in which
His-tagged Parp-1 transfers biotinylated ADP-ribose/ADP-ribose to itself from biotinylated NAD/NAD as co-substrate and the detection reaction where a time resolved FRET between cryptate labelled anti-His antibody bound to the His tag of the enzyme and Xlent® labelled-streptavidin bound the biotin-parsylation residue is analysed. The autoparsylation activity is detectable directly via the increase in HTRF signal.
The autoparsylation assay is performed as 384-well HTRF® (Cisbio, Codolet, France) assay format in Greiner low volume nb 384-well microtiter plates. 35 nM His-tagged Parp-1 (human, recombinant, Enzo Life Sciences GmbH, Lörrach, Germany) and a mixture of 125 nM bio-NAD (Biolog, Life science Inst., Bremen, Germany) and 800 nM NAD as co-substrate are incubated in a total volume of 6 μl (100 mM Tris/HCl, 4 mM Mg-chloride, 0.01% IGEPAL® CA630, 1 mM DTT, 0.5% DMSO, pH 8, 13 ng/μl activated DNA (BPS Bioscience, San Diego, US)) in the absence or presence of the test compound (10 dilution concentrations) for 150 min at 23° C. The reaction is stopped by the addition of 4 μl of the Stop/detection solution (70 nM SA-Xlent® (Cisbio, Codolet, France), 2.5 nM Anti-His-K® (Eu-labelled anti-His, Cisbio, Codolet, France) in 50 mM HEPES, 400 mM KF, 0.1% BSA, 20 mM EDTA, pH 7.0). After 1 h incubation at room temperature the HTRF is measured with an Envision multimode reader (Perkin Elmer LAS Germany GmbH) at excitation wavelength 340 nm (laser mode) and emission wavelengths 615 nm and 665 nm. The ratio of the emission signals is determined. The full value used is the inhibitor-free reaction. The pharmacological zero value used is Olaparib (LClabs, Woburn, US) in a final concentration of 1 μM. The inhibitory values (IC50) are determined using either the program Symyx Assay Explorer® or Condosseo® from GeneData.

T1 sequence (P09874 whole entry): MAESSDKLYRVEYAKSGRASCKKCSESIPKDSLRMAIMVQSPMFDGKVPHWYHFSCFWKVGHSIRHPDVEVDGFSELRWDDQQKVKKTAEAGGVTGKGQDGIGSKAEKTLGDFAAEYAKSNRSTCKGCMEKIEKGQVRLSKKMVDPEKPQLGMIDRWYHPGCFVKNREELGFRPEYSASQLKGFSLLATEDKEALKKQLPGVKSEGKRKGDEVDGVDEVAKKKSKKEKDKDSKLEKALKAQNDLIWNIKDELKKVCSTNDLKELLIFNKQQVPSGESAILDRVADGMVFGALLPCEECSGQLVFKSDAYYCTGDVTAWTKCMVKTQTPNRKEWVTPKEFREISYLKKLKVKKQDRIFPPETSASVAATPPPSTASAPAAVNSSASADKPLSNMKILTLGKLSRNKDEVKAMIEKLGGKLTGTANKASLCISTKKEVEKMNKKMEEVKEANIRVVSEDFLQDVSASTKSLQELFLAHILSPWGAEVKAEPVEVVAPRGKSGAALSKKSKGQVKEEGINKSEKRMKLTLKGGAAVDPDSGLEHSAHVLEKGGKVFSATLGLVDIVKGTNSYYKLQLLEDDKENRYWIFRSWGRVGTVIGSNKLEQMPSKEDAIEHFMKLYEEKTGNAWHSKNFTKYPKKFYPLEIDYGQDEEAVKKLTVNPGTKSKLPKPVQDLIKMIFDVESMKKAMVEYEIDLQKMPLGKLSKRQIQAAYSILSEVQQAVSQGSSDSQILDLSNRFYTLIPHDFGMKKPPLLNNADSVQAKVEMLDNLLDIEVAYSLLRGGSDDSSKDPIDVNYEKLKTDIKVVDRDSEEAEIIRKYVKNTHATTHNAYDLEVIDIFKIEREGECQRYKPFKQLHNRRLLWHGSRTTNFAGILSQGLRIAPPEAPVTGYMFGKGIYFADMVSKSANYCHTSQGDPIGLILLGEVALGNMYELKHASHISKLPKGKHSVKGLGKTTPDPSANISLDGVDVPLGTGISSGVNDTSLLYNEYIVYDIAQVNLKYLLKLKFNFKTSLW

**Q.** Which IC50 does the source give for Cc1cc2c(=O)[nH]c(-c3ccc(C(C)(C)O)cc3)cn2c1 [Compound A56, 3-[4-(1-hydroxy-1-methyl-ethyl)-phenyl]-7-methyl-2H-pyrrolo[1,2-a]pyrazin-1-one] here?
**A.** 0.3 to 3 µM

**Q.** With Cc1ccc(-c2cn3cccc3c(=O)[nH]2)cc1 [Compound A12, 3-p-tolyl-2H-pyrrolo[1,2-a]pyrazin-1-one] as the compound, how does the IC50 read?
**A.** 0.3 to 3 µM

**Q.** With CC(C)(C)c1ccc(-c2cn3cccc3c(=O)[nH]2)cc1 [Compound A11, 3-(4-tert-butyl-phenyl)-2H-pyrrolo[1,2-a]pyrazin-1-one] as the compound, how does the IC50 read?
**A.** 3 to 50 µM

**Q.** CC(C)(O)c1ccc(-c2cn3cc(F)cc3c(=O)[nH]2)cc1 [Compound A59, 7-fluoro-3-[4-(1-hydroxy-1-methyl-ethyl)-phenyl]-2H-pyrrolo[1,2-a]pyrazin-1-one] was tested. Which IC50 did it give?
**A.** 0.3 to 3 µM

**Q.** How did the IC50 turn out when Cc1cc2c(=O)[nH]c(-c3ccc(C(C)(C)O)cc3)cn2n1 [Compound A46, 6-[4-(1-hydroxy-1-methyl-ethyl)phenyl]-2-methyl-5H-pyrazolo[1,5-a]pyrazin-4-one] was run?
**A.** 0.3 to 3 µM

**Q.** CN1CCC(c2ccc(-c3cn4cccc4c(=O)[nH]3)cc2)CC1 [Compound A79, 3-[4-(1-methyl-piperidin-4-yl)-phenyl]-2H-pyrrolo[1,2-a]pyrazin-1-one] was tested. Which IC50 did it give?
**A.** 3 to 50 µM

**Q.** For CC(C)(N)c1ccc(-c2cn3cc(F)cc3c(=O)[nH]2)cc1 [Compound A72, 3-[4-(1-amino-1-methyl-ethyl)-phenyl]-7-fluoro-2H-pyrrolo[1,2-a]pyrazin-1-one], which IC50 is on record?
**A.** < 0.3 µM

**Q.** For CC(C)(O)c1ccc(-c2cn3cccc3c(=O)[nH]2)cc1 [Compound A29, 3-[4-(1-hydroxy-1-methyl-ethyl)-phenyl]-2H-pyrrolo[1,2-a]pyrazin-1-one], which IC50 is on record?
**A.** 0.3 to 3 µM

**Q.** Which IC50 does the source give for CC(C)(F)c1ccc(-c2cn3cc(F)cc3c(=O)[nH]2)cc1 [Compound A63, 7-fluoro-3-[4-(1-fluoro-1-methyl-ethyl)-phenyl]-2H-pyrrolo[1,2-a]pyrazin-1-one] here?
**A.** 0.3 to 3 µM

**Q.** CC1(c2ccc(-c3cn4cc(F)cc4c(=O)[nH]3)cc2)CCCO1 (centres unmarked) [Compound A73, 7-fluoro-3-[4-(2-methyl-tetrahydro-furan-2-yl)-phenyl]-2H-pyrrolo[1,2-a]pyrazin-1-one] was tested. Which IC50 did it give?
**A.** 0.3 to 3 µM

**Q.** Which IC50 does the source give for COCCOC(C)(C)c1ccc(-c2cn3cc(F)cc3c(=O)[nH]2)cc1 [Compound A71, 7-fluoro-3-{4-[1-(2-methoxy-ethoxy)-1-methyl-ethyl]-phenyl}-2H-pyrrolo[1,2-a]pyrazin-1-one] here?
**A.** 3 to 50 µM

**Q.** O=c1[nH]c(-c2ccc(C3CCNCC3)cc2)cn2cccc12 [Compound A75, 3-(4-piperidin-4-yl-phenyl)-2H-pyrrolo[1,2-a]pyrazin-1-one] was tested. Which IC50 did it give?
**A.** 3 to 50 µM

**Q.** With O=c1[nH]c(-c2ccc(C3(O)CCC3)cc2)cn2cccc12 [Compound A111] as the compound, how does the IC50 read?
**A.** 0.3 to 3 µM

**Q.** Cn1cc(-c2ccc(-c3cn4cccc4c(=O)[nH]3)cc2)cn1 [Compound A25, 3-[4-(1-methyl-1H-pyrazol-4-yl)-phenyl]-2H-pyrrolo[1,2-a]pyrazin-1-one] was tested. Which IC50 did it give?
**A.** 3 to 50 µM

**Q.** With CN1CCC(c2ccc(-c3cn4cccc4c(=O)[nH]3)cc2)C1 (centres unmarked) [Compound A80, 3-[4-(1-methyl-pyrrolidin-3-yl)-phenyl]-2H-pyrrolo[1,2-a]pyrazin-1-one] as the compound, how does the IC50 read?
**A.** 3 to 50 µM

**Q.** Which IC50 does the source give for CCC(O)(CC)c1ccc(-c2cn3cc(F)cc3c(=O)[nH]2)cc1 [Compound A61, 3-[4-(1-ethyl-1-hydroxy-propyl)-phenyl]-7-fluoro-2H-pyrrolo[1,2-a]pyrazin-1-one] here?
**A.** 0.3 to 3 µM

**Q.** Which IC50 does the source give for CC(C)(O)c1ccc(-c2cn3cc(Cl)cc3c(=O)[nH]2)cc1 [Compound A60, 7-chloro-3-[4-(1-hydroxy-1-methyl-ethyl)-phenyl]-2H-pyrrolo[1,2-a]pyrazin-1-one] here?
**A.** 0.3 to 3 µM

**Q.** How did the IC50 turn out when CC(C)(C)c1ccc(-c2cn3cc(F)cc3c(=O)[nH]2)cc1 [Compound A35, 3-(4-tert-butyl-phenyl)-7-fluoro-2H-pyrrolo[1,2-a]pyrazin-1-one] was run?
**A.** 3 to 50 µM

**Q.** How did the IC50 turn out when CC(C)(OCCO)c1ccc(-c2cn3cc(F)cc3c(=O)[nH]2)cc1 [Compound A70, 7-fluoro-3-{4-[1-(2-hydroxy-ethoxy)-1-methyl-ethyl]-phenyl}-2H-pyrrolo[1,2-a]pyrazin-1-one] was run?
**A.** 0.3 to 3 µM

**Q.** O=c1[nH]c(-c2ccc(C3CCNC3)cc2)cn2cccc12 (centres unmarked) [Compound A76, 3-(4-Pyrrolidin-3-yl-phenyl)-2H-pyrrolo[1,2-a]pyrazin-1-one] was tested. Which IC50 did it give?
**A.** 0.3 to 3 µM
